Results taken from patent publication US8288380B2, “Thiophenediamine derivative having urea structure” (Santen Pharmaceutical Co., Ltd., priority 2008, dated 2012).

Columns and labels:
[1] = system: male Japanese White rabbits; test: Test for evaluation of intraocular pressure-lowering effect (intracameral administration); format: in vivo, rabbit; conditions: intracameral administration of 20 μL of 1 mM liquid, at 9 hours after administering, versus vehicle control group
Text: Further, as a result of studying an effect of intraocular pressure reduction of the present compound through intracameral administration using male Japanese white rabbits in order to confirm an actual effect of intraocular pressure reduction of the present compound, it was confirmed that the present compound has an effect of intraocular pressure reduction. […]
One drop of 0.4% oxybuprocaine hydrochloride eye drop was instilled into both eyes of each male Japanese White rabbit to achieve local anesthesia, and thereafter, the intraocular pressure was measured using an applanation tonometer. […] After the lapse of a certain period of time from the administration of the test compound or vehicle, one drop of 0.4% oxybuprocaine hydrochloride eye drop was instilled into the administered eye to achieve local anesthesia, and thereafter, the intraocular pressure was measured using an applanation tonometer.
The intraocular pressure-lowering effect of each test compound was evaluated by calculating an intraocular pressure reduction rate. The intraocular pressure reduction rate (%) was calculated using the following equation. […]

[2] = system: HDAC (HeLa nuclear extract); test: Test for evaluation of HDAC inhibitory activity (HDAC Fluorimetric Assay/Drug Discovery Kit, Biomol); format: biochemical; conditions: final concentration of the test compound 30 μM, values more than 100% shown as 100%
Experimental: Using HDAC Fluorimetric Assay/Drug Discovery Kit (manufactured by Biomol), HDAC inhibitory activity of the present compounds was measured according to the protocol included with the kit. The kit contains Buffer, HeLa nuclear extract (includes HDAC), Substrate, Developer and Trichostatin A HDAC inhibitor).
A test compound was dissolved in dimethyl sulfoxide (hereinafter referred to as “DMSO”), whereby a 2 mg/mL solution was prepared. Then, the resulting solution was diluted with Buffer containing 5% DMSO, whereby a 150 μM test compound solution was prepared.
1) To a 384-well culture plate, the test compound solution was added in an amount of 2 μL per well.
2) HeLa nuclear extract was diluted 30-fold with Buffer. The resulting solution was added in an amount of 3 μL per well, and then incubation was performed at 37° C. for 2 hours.
3) Substrate was diluted 500-fold with Buffer. The resulting solution was added in an amount of 5 μL per well (the final concentration of the test compound was 30 μM), and then incubation was performed at 37° C. for 10 minutes.
4) Developer was diluted 20-fold with Buffer and Trichostatin A (2 μM) was added to it. The resulting solution was added in an amount of 10 μL per well, and then incubation was performed at room temperature for 15 minutes.
5) The fluorescence intensity of each well was measured using multilabel counter ARVO (manufactured by Wallac) with excitation at 360 nm and emission at 460 nm.
6) A control data was obtained from the same experiment except that Buffer containing 5% DMSO was added instead of the test compound solution as the above-mentioned procedure from 1) to 5).
7) A blank data was obtained from the same experiment except that Buffer containing 5% DMSO was added instead of the test compound solution and that Buffer was added instead of Hela nuclear extract as the above-mentioned procedure from 1) to 5).
Enzyme inhibitory rate (%) was calculated using the following equation. (Enzyme Inhibitory Rate(%))=100×[1−{(Fluorescence Intensity of Test Compound Solution)−(Florescence Intensity of Blank)}/{(Florescence Intensity of Control)−(Florescence Intensity of Blank)}] (Test Results)

[3] = system: human trabecular meshwork cell line (TM-1 cells); test: Test for evaluation of effect of morphological change on trabecular meshwork cells (cell shape index, CSI); format: cell-based; conditions: final concentration 10 μM, 24 hours incubation, Control 0.694, lower CSI indicates greater morphological changes
Text: Further, as a result of studying an effect morphological change of the present compound on trabecular meshwork cells, i.e., an effect of morphological change of the present compound on trabecular meshwork cells in an evaluation system using the cell shape index (hereinafter referred to as “CSI”) reported in The Journal of Clinical Investigation, 103, 1141-1150 (1999) as an index, it was found the present compound has an excellent effect of morphological change on trabecular meshwork cells.
As a method for evaluating a cellular morphological change, an evaluation system using the cell shape index (hereinafter referred to as “CSI”) as an index has been reported in The Journal of Clinical Investigation, 103, 1141-1150 (1999). Therefore, according to the method described in the above document, an effect of morphological change of the present compounds on trabecular meshwork cells was evaluated.
A human trabecular meshwork cell line (hereinafter referred to as “TM-1 cells”) reported in Investigative Ophthalmology & Visual Science, 43, 151-161 (2002) was used.
Culture medium 1: A reagent was prepared by adding fetal bovine serum (10%), L-glutamine (2 mM), amphotericin B ([…]), and gentamicin (25 μg/mL) to Dulbecco's Modified Eagle Medium (hereinafter referred to as “D-MEM”).
Culture medium 2: A reagent was prepared by adding fetal bovine serum (3%), L-glutamine (2 mM), amphotericin B (2.5 μg/mL), and gentamicin (25 μg/mL) were added to D-MEM.
Cell staining liquid: A mixed liquid of Calcein-AM (16 μM) and Hoechst 33342 (40 μM) was prepared by diluting a Calcein-AM solution (cytoplasmic staining reagent, manufactured by Dojindo Laboratories) and a Hoechst 33342 solution (nuclear staining reagent, manufactured by Dojindo Laboratories) with D-MEM containing L-glutamine (2 mM), amphotericin B (2.5 μg/mL), and gentamicin (25 μg/mL).
TM-1 cells subcultured at 37° C. in a 8% carbon dioxide gas atmosphere were treated with a trypsin/EDTA solution (0.05% trypsin and 0.53 mM tetrasodium ethylenediaminetetraacetate) at 24 hours before performing a drug treatment mentioned below and seeded on a 96-well culture plate. The culture medium 1 was used for the subculture of the cells. The culture medium 2 was used for the cell culture after seeding the cells on the plate.
A test compound was dissolved in DMSO, whereby a 5 mM solution was prepared. Then, the resulting solution was diluted with the culture medium 2, whereby a 200 μM test compound solution was prepared.
It has been reported that Y-27632 which is a Rho kinase inhibitor induces a morphological change in trabecular meshwork cells in Investigative Ophthalmology & Visual Science, 42, 137-144 (2001). Therefore, Y-27632 (produced according to the method described in WO 90/05723) was used as a positive control, and dissolved in DMSO in the same manner as the test compound, whereby a 5 mM solution was prepared, and then, the resulting solution was diluted with the culture medium 2, whereby a 200 μM positive control compound solution was prepared.
1) To a 96-well culture plate, a solution of TM-1 cells adjusted to a cell density of […] was added in an amount of 95 μL (1.5×10^4 cells) per well.
2) Incubation was performed at 37° C. in a 8% carbon dioxide gas atmosphere for 24 hours.
3) The test compound solution or positive control compound solution was added in an amount of 5 μL per well (the final concentration of the test compound or positive control compound was 10 μM). As a control, the culture medium 2 containing DMSO (4%) was added in an amount of 5 μL per well.
4) Incubation was performed at 37° C. in a 8% carbon dioxide gas atmosphere for 24 hours.
5) The cell staining liquid was added in an amount of 10 μL per well.
6) Incubation was performed at 37° C. in a 8% carbon dioxide gas atmosphere for 1 hour to stain the cells.
7) A 37% formaldehyde solution was added in an amount of 10 μL per well.
8) Incubation was performed at room temperature for 1 hour to fix the cells. […]

Enzyme Inhibitory Rate (%) [2] [%] | SMILES | Intraocular Pressure Reduction Rate (%) [1] [%] | CSI [3]
100 | CC(C)NC(=O)N(CCN(C)C)Cc1ccc(C(=O)Nc2cscc2N)nc1 [Compound No. 1-43, N-(4-Aminothiophen-3-yl)-5-[1-(2-dimethylaminoethyl)-3-isopropylureidomethyl]pyridine-2-carboxylic acid amide] | 7 | 0.522
96 | CCCNC(=O)N(CCCCN1CCOCC1)Cc1ccc(C(=O)Nc2cscc2N)nc1 [Compound No. 1-82, N-(4-Aminothiophen-3-yl)-5-[1-[4-(morpholin-4-yl)butyl]-3-propylureidomethyl]pyridine-2-carboxylic acid amide] | 25 | 0.507
